In brackets after ≈: the same amount, converted by molar mass. Where a name gives a salt, the structure may show the parent alone.
Columns and labels:
B. subtilis RB1 = assay: Antibacterial assay, standard microtitration, MIC; type: cell-based; settings: Bacillus subtilis, Gram positive, read-out: Minimum Inhibitory Concentrations, B. subtilis RB1
Experimental: (§1) The compounds of the present invention were tested against an assortment of gram negative and gram positive organisms using standard microtitration techniques (Cohen, et al., Antimicrob. Agents Chemother., 1985;28:766; Heifetz, et al. Antimicrob. Agents Chemother., 1974;6:124).

E. coli B90 = assay: Antibacterial assay, standard microtitration, MIC; type: cell-based; settings: Escherichia coli, Gram negative, read-out: Minimum Inhibitory Concentrations, E. coli B90
Experimental: as §1

E. coli MC4100 = assay: Antibacterial assay, standard microtitration, MIC; type: cell-based; settings: Escherichia coli, Gram negative, read-out: Minimum Inhibitory Concentrations, E. coli MC4100
Experimental: as §1

E. coli To1C = assay: Antibacterial assay, standard microtitration, MIC; type: cell-based; settings: Escherichia coli, TO1C, read-out: Minimum Inhibitory Concentrations, E. coli To1C
Experimental: as §1

S. aureus 29213 = assay: Antibacterial assay, standard microtitration, MIC; type: cell-based; settings: Staphylococcus aureus, Gram positive, read-out: Minimum Inhibitory Concentrations, S. aureus 29213
Experimental: as §1

S. pyogenes C203 = assay: Antibacterial assay, standard microtitration, MIC; type: cell-based; settings: Streptococcus pyogenes, Gram positive, read-out: Minimum Inhibitory Concentrations, S. pyogenes C203
Experimental: as §1

| SMILES | melting point [°C] | MIC (B. subtilis RB1) [µg/mL] | MIC (E. coli B90) [µg/mL] | MIC (E. coli MC4100) [µg/mL] | MIC (E. coli To1C) [µg/mL] | MIC (S. aureus 29213) [µg/mL] | MIC (S. pyogenes C203) [µg/mL] |
| --- | --- | --- | --- | --- | --- | --- | --- |
| O=C1c2cccc3c(N4CCNCC4)c([N+](=O)[O-])cc(c23)C(=O)N1O | 300 to 302 | – | – | – | – | – | – |
| O=C1c2ccc([N+](=O)[O-])c3c([N+](=O)[O-])ccc(c23)C(=O)N1O [Example 48, 2-Hydroxy-6,7-dinitro-benzo[de]isoquinoline-1,3-dione] | – | 8 (≈ 26.4 µM) | 4 (≈ 13.2 µM) | 16 (≈ 52.8 µM) | 4 (≈ 13.2 µM) | 2 (≈ 6.6 µM) | 1 (≈ 3.3 µM) |
| COc1cc2c3c(cccc3c1N1CCCCC1)C(=O)N(O)C2=O [Example 35, 2-Hydroxy-5-methoxy-6-(piperidin-1-yl)-benzo[de]isoquinoline-1,3-dione] | – | 2 (≈ 6.13 µM) | 64 (≈ 196 µM) | > 64 | 64 (≈ 196 µM) | 1 (≈ 3.06 µM) | 4 (≈ 12.3 µM) |
| CCOc1cc2c3c(cccc3c1)C(=O)N(O)C2=O [Example 14, 5-Ethoxy-2-hydroxy-benzo[de]isoquinoline-1,3-dione] | – | 1 (≈ 3.89 µM) | 0.25 (≈ 0.972 µM) | 2 (≈ 7.77 µM) | 0.13 (≈ 0.505 µM) | 8 (≈ 31.1 µM) | > 64 |
| Cl.N[C@H]1CCN(c2c(Br)cc3c4c(cccc24)C(=O)N(O)C3=O)C1 [Example 54, (S)-6-(3-Amino-pyrrolidin-1-yl)-5-bromo-2-hydroxy-1H-benzo[de]isoquinoline-1,3-dione, Hydrochloride] | – | 2 | 0.5 | 2 | 0.5 | 8 | 4 |
| N#Cc1cc2c3c(cccc3c1N1CCCC1)C(=O)N(O)C2=O [Example 57, 5-Cyano-2-hydroxy-6-(pyrrolidin-1-yl)-benzo[de]isoquinoline-1,3-dione] | – | 1 (≈ 3.25 µM) | 0.5 (≈ 1.63 µM) | 32 (≈ 104 µM) | 0.5 (≈ 1.63 µM) | 4 (≈ 13 µM) | 32 (≈ 104 µM) |
| Nc1cc2c3c(cccc3c1N1CCCCC1)C(=O)N(O)C2=O [Example 71] | 244 to 248 | 2 (≈ 6.42 µM) | 4 (≈ 12.8 µM) | > 64 | 4 (≈ 12.8 µM) | 2 (≈ 6.42 µM) | 16 (≈ 51.4 µM) |
| O=C1c2cccc3c4c(cc(c23)C(=O)N1O)OCOC4 [Example 45, 5-Hydroxy-11H-8,10-dioxa-5-aza-benzo[de]anthracene-4,6-dione] | – | 0.25 (≈ 0.922 µM) | 0.13 (≈ 0.479 µM) | 0.5 (≈ 1.84 µM) | 0.13 (≈ 0.479 µM) | 1 (≈ 3.69 µM) | 8 (≈ 29.5 µM) |
| O=C1c2cc([N+](=O)[O-])cc3c(N4CCCC4)c([N+](=O)[O-])cc(c23)C(=O)N1O [Example 111, 2-Hydroxy-5,8-dinitro-6-(pyrrolidin-1-yl)-benzo[de]isoquinoline-1,3-dione] | – | 32 (≈ 86 µM) | 2 (≈ 5.37 µM) | > 64 | 4 (≈ 10.7 µM) | 8 (≈ 21.5 µM) | > 64 |
| NCC1CCN(c2c(Cl)cc3c4c(cccc24)C(=O)N(O)C3=O)C1 (stereo not drawn) (as salt: HCl) [Example 85] | 229 to 232 | – | – | – | – | – | – |

Continued, in another order:

| melting point [°C] | SMILES | MIC (B. subtilis RB1) [µg/mL] | MIC (E. coli B90) [µg/mL] | MIC (E. coli MC4100) [µg/mL] | MIC (E. coli To1C) [µg/mL] | MIC (S. aureus 29213) [µg/mL] | MIC (S. pyogenes C203) [µg/mL] |
| --- | --- | --- | --- | --- | --- | --- | --- |
| 194 to 196 | CCCCCN1COc2cc3c4c(cccc4c2C1)C(=O)N(O)C3=O [Example 129] | – | – | – | – | – | – |
| 252 to 255 | CC(=O)Nc1cc2c3c(cccc3c1N1CCCCC1)C(=O)C(O)C2=O (stereo not drawn) [Example 65] | – | – | – | – | – | – |
| 247 to 249 | CN1COc2cc3c4c(cccc4c2C1)C(=O)N(O)C3=O [Example 127] | – | – | – | – | – | – |
| 197 to 201 | O=C1c2cccc3c(N4CC[C@H](O)C4)c(Cl)cc(c23)C(=O)N1O [Example 84] | – | – | – | – | – | – |
| 280 to 283 | O=C1c2cccc3c([SH]4CCNCC4)c([N+](=O)[O-])cc(c23)C(=O)N1O [Example 78] | – | – | – | – | – | – |
| 292 to 295 | CC(=O)Nc1cc2c3c(cccc3c1[SH]1CCNCC1)C(=O)C(O)C2=O (stereo not drawn) [Example 67] | – | – | – | – | – | – |
| 252 to 254 | O=C1c2cccc3c(N4CCCCC4)c([N+](=O)[O-])cc(c23)C(=O)N1O [Example 77] | – | – | – | – | – | – |
| > 250 | CCCCNC(=O)Nc1cc2c3c(cccc3c1)C(=O)N(O)C2=O [Example 100] | – | – | – | – | – | – |
| 240 to 242 | O=C1c2cccc3c([SH]4CCNCC4)c(Cl)cc(c23)C(=O)N1O [Example 95] | – | – | – | – | – | – |

From patent US6362181B1, “Isoquinolones” (Warner-Lambert Company, priority 1996, dated 2002)
